{"source": "patent US20040029965A1", "about": "“Formulations for reducing or eliminating toxicity of enviromental hormones containing ursodeoxycholic acid” (priority 2000, published 2004)", "type_in_all_cases": "in vivo", "key": {"C57B1/6J mice [1]": {"system": "C57B1/6J mice", "assay": "Effect of UDCA on death (death rate, death time) of mice by a single subcutaneous injection of TCDD", "description": "(§1) Male C57B1/6J mice of 5 weeks old having the average weight of 18-22 g which had been bred in CRJ (Charles River in Japan) were purchased and used in this example as experimental animals. Those mice were acclimated under the constant breeding condition, i.e. the temperature of 24±1° C., the humidity of 60±10% and the light and darkness cycle of 12 hours, for one week and thereafter, utilized in the experiment.\nThe Experimental animals were supplied with Purina powdered feed (purchased from Hae Eun Trade) and supplied with water ad libitum. All the animals were weighed twice a week during experimentation.\n(§2) 2,3,7,8-tetrachlorodibenzo-p-dioxin (TCDD) dissolved in toluene (purity of 95% or more as a result of gas chromatography analysis), manufactured by Chem. Services Inc. in USA, was volatilized with nitrogen to obtain powder. The obtained powder was dissolved in a mixed solvent containing acetone and corn oil with a volume ratio of 1:6. The resulting solution each containing 110, 27.5 and 6.9 μg/kg of TCDD was subcutaneously injected to mice at a volume of 5 ml per body weight. […] The mice were supplied with the feed from 10 days before (pre-administration) to 60 days after administration of TCDD (post-administration).\n(§3) The results are expressed as Mean±Standard Deviation values. For statistical analysis of the body weight, feed and water uptake, biochemical findings, hematological findings and the weight of organ in an acute toxicity test, verification was performed by one way analysis of variance (ANOVA) in case of equal distribution. In case significance was recognized in ANOVA, the Student's t-test was performed in the levels of p<0.05 and p<0.01."}, "C57B1/6J mice [2]": {"system": "C57B1/6J mice", "assay": "Organ weights (liver, kidneys, testes, epididymides) of mice after a single subcutaneous injection of TCDD", "description": "as §1, §2\n(§4) Upon completion of the experiment for 60 days, the experimental animals were fasted for 24 hours and anesthetized with ether. Then, they were abdominally incised and blood was gathered from abdominal vena cava. They were sacrificed by the release of blood. Liver, kidneys, testes and epididymides were extracted and all the extracted organs were weighed. Only the testes were separately kept and observed under optical and electron microscopes. For biochemical finding test, serum was separated from blood with a centrifuge and the separated serum was analyzed with an automated blood biochemical analyzer, Dimension (Dupont, USA). Blood was put to another blood gathering bottle and then, analyzed with an automated blood cell analyzer, Celldyn (Abbott, USA).\nas §3\nThe organs, i.e. liver, kidneys, testes and epididymides, were weighed and the results are shown in the following."}, "C57B1/6J mice [3]": {"system": "C57B1/6J mice", "assay": "Optical microscopy of testes (histopathological findings)", "conditions": "TCDD 27.5 μg/kg alone; FIG. 2", "description": "as §2, §4\nThe extracted testes were fixed in 10% neutralized formalin buffer for 24 hours and washed with the flowing water. It was subsequently dehydrated with ethanol and cleared with xylene and then, embedded with paraffin. It was sectioned with microtome (microm is HM 440E) to a thickness of 2-3 μm and then, double stained with hematoxylin and eosin to observe under an optical microscope."}}, "data": [{"compound": "Clc1cc2c(cc1Cl)Oc1cc(Cl)c(Cl)cc1O2", "note": "[TCDD, 2,3,7,8-tetrachlorodibenzo-p-dioxin]", "values": [{"measurement": "Death rate", "setting": "C57B1/6J mice [1]; TCDD 6.9 μg/kg alone", "result": 0, "unit": "%"}, {"measurement": "No. of dead mice/No. of administered mice", "setting": "C57B1/6J mice [1]; TCDD 6.9 μg/kg alone", "result": "0/10"}, {"measurement": "Death rate", "setting": "C57B1/6J mice [1]; TCDD 27.5 μg/kg alone", "result": 30, "unit": "%"}, {"measurement": "Death time (Mean ± SD)", "setting": "C57B1/6J mice [1]; TCDD 27.5 μg/kg alone", "result": "55 ± 5", "unit": "days"}, {"measurement": "No. of dead mice/No. of administered mice", "setting": "C57B1/6J mice [1]; TCDD 27.5 μg/kg alone", "result": "3/10"}, {"measurement": "Death time (Mean ± SD)", "setting": "C57B1/6J mice [1]; TCDD 110.0 μg/kg alone", "result": "35 ± 7", "unit": "days"}, {"measurement": "No. of dead mice/No. of administered mice", "setting": "C57B1/6J mice [1]; TCDD 110.0 μg/kg alone", "result": "10/10"}, {"measurement": "Left epididymis Relative weight", "setting": "C57B1/6J mice [2]; TCDD 6.9 μg/kg alone", "result": "0.101 ± 0.012", "unit": "%"}, {"measurement": "Left epididymis Weight", "setting": "C57B1/6J mice [2]; TCDD 6.9 μg/kg alone", "result": "0.023 ± 0.005", "unit": "g"}, {"measurement": "Left kidney Relative weight", "setting": "C57B1/6J mice [2]; TCDD 6.9 μg/kg alone", "result": "0.508 ± 0.050", "unit": "%"}, {"measurement": "Left kidney Weight", "setting": "C57B1/6J mice [2]; TCDD 6.9 μg/kg alone", "result": "0.115 ± 0.018", "unit": "g"}, {"measurement": "Left testis Relative weight", "setting": "C57B1/6J mice [2]; TCDD 6.9 μg/kg alone", "result": "0.296 ± 0.030", "unit": "%"}, {"measurement": "Left testis Weight", "setting": "C57B1/6J mice [2]; TCDD 6.9 μg/kg alone", "result": "0.067 ± 0.011", "unit": "g"}, {"measurement": "Liver Relative weight", "setting": "C57B1/6J mice [2]; TCDD 6.9 μg/kg alone", "result": 4.092, "unit": "%"}, {"measurement": "Liver Weight", "setting": "C57B1/6J mice [2]; TCDD 6.9 μg/kg alone", "result": "0.935 ± 0.173", "unit": "g"}, {"measurement": "Right epididymis Relative weight", "setting": "C57B1/6J mice [2]; TCDD 6.9 μg/kg alone", "result": "0.110 ± 0.027", "unit": "%"}, {"measurement": "Right epididymis Weight", "setting": "C57B1/6J mice [2]; TCDD 6.9 μg/kg alone", "result": "0.025 ± 0.007", "unit": "g"}, {"measurement": "Right kidney Relative weight", "setting": "C57B1/6J mice [2]; TCDD 6.9 μg/kg alone", "result": "0.513 ± 0.066", "unit": "%"}, {"measurement": "Right kidney Weight", "setting": "C57B1/6J mice [2]; TCDD 6.9 μg/kg alone", "result": "0.117 ± 0.022", "unit": "g"}, {"measurement": "Right testis Relative weight", "setting": "C57B1/6J mice [2]; TCDD 6.9 μg/kg alone", "result": "0.285 ± 0.035", "unit": "%"}, {"measurement": "Right testis Weight", "setting": "C57B1/6J mice [2]; TCDD 6.9 μg/kg alone", "result": "0.65 ± 0.010", "unit": "g"}, {"measurement": "Left epididymis Relative weight", "setting": "C57B1/6J mice [2]; TCDD 27.5 μg/kg alone", "result": "0.124 ± 0.024", "unit": "%"}, {"measurement": "Left epididymis Weight", "setting": "C57B1/6J mice [2]; TCDD 27.5 μg/kg alone", "result": "0.021 ± 0.006", "unit": "g"}, {"measurement": "Left kidney Relative weight", "setting": "C57B1/6J mice [2]; TCDD 27.5 μg/kg alone", "result": "0.625 ± 0.037", "unit": "%"}, {"measurement": "Left kidney Weight", "setting": "C57B1/6J mice [2]; TCDD 27.5 μg/kg alone", "result": "0.101 ± 0.012", "unit": "g"}, {"measurement": "Left testis Relative weight", "setting": "C57B1/6J mice [2]; TCDD 27.5 μg/kg alone", "result": "0.356 ± 0.051", "unit": "%"}, {"measurement": "Left testis Weight", "setting": "C57B1/6J mice [2]; TCDD 27.5 μg/kg alone", "result": "0.058 ± 0.014", "unit": "g"}, {"measurement": "Liver Relative weight", "setting": "C57B1/6J mice [2]; TCDD 27.5 μg/kg alone", "result": 4.506, "unit": "%"}, {"measurement": "Liver Weight", "setting": "C57B1/6J mice [2]; TCDD 27.5 μg/kg alone", "result": "0.734 ± 0.151", "unit": "g"}, {"measurement": "Right epididymis Relative weight", "setting": "C57B1/6J mice [2]; TCDD 27.5 μg/kg alone", "result": "0.129 ± 0.027", "unit": "%"}, {"measurement": "Right epididymis Weight", "setting": "C57B1/6J mice [2]; TCDD 27.5 μg/kg alone", "result": "0.021 ± 0.006", "unit": "g"}, {"measurement": "Right kidney Relative weight", "setting": "C57B1/6J mice [2]; TCDD 27.5 μg/kg alone", "result": "0.571 ± 0.030", "unit": "%"}, {"measurement": "Right kidney Weight", "setting": "C57B1/6J mice [2]; TCDD 27.5 μg/kg alone", "result": "0.092 ± 0.012", "unit": "g"}, {"measurement": "Right testis Relative weight", "setting": "C57B1/6J mice [2]; TCDD 27.5 μg/kg alone", "result": "0.352 ± 0.059", "unit": "%"}, {"measurement": "Right testis Weight", "setting": "C57B1/6J mice [2]; TCDD 27.5 μg/kg alone", "result": "0.058 ± 0.015", "unit": "g"}, {"measurement": "seminiferous tubules, optical microphotograph", "setting": "C57B1/6J mice [3]", "result": "remarkably reduced spermatogenesis was observed"}]}]}
